Measured values from patent US20240376096A1, “SMALL MOLECULE CYCLIN DEPENDENT KINASE 4/6 (CDK4/6) AND IKZF2 (HELIOS) DEGRADERS AND METHODS OF USE THEREOF” (DANA-FARBER CANCER INSTITUTE, INC., priority 2021, published 2024).

Tests used:
Type in all cases: cell-based
[1] = target: T1, CDK4 (Homo sapiens, UniProt P11802); experiment: Immunoblot of CDK4 levels in Jurkat cells; settings: 1 μM; for degradation of CDK4 (immunoblot): 4 h; for protein abundance of CDK4 (immunoblot): 16 h
T1 construct: immunoblots from Jurkat cells treated with the indicated compounds; endogenous in cells; host or cells: Jurkat cells
Method: (§1) FIG. 1A is a set of immunoblots of Jurkat cells treated with 1 μM of the indicated (DKY709 and Ia-1 to Ia-8) compounds for 4 hours, showing the levels of Ikaros, Helios, CDK4, CDK6, and tubulin for each compound.
(§2) FIG. 1B is a set of immunoblots of Jurkat cells treated with the Helios degrader DKY709, the triple degrader Ia-8, and the paired negative control compound 17 for 4 hours, showing the levels of Ikaros, Helios, CDK4, CDK6, and tubulin for each compound at 0.1 μM and 1 μM.
(§3) FIG. 2 is a set of immunoblots of Jurkat cells treated with the indicated compounds (palbociclib, DKY709, Ia-8, and 17) at 0.1 μM and 1 μM for 16 hours.
(§4) The structure of DKY709 (3-(5-(1-benzylpiperidin-4-yl)-1-oxoisoindolin-2-yl)piperidine-2,6-dione) is shown here: […]

[2] = target: T2, CDK6 (Homo sapiens, UniProt Q00534); experiment: Immunoblot of CDK6 levels in Jurkat cells; settings: 1 μM; for degradation of CDK6 (immunoblot): 4 h; for protein abundance of CDK6 (immunoblot): 16 h
T2 construct: immunoblots from Jurkat cells treated with the indicated compounds; endogenous in cells; host or cells: Jurkat cells
Method: as §1, §2, §3, §4

[3] = tested on: Jurkat cells; experiment: IL-2 levels by ELISA after TCR stimulation; settings: Jurkat cells pre-treated with 1 μM for 24 h, then TCR-stimulated for 18 h
Method: FIG. 4 is a graph of [IL2] for the indicated compounds in Jurkat cells upon TCR-stimulation with a-CD3/CD28.
Quantification of IL-2 levels by ELISA from Jurkat cells pre-treated with 1 μM of the indicated compounds for 24 h and then TCR-stimulated for 18 h. Results are shown in FIG. 4 as mean±SD (untreated, n=3; other conditions, n=4) (*p<0.05). […] The structure of 19 (N-(4-(4-(6-((6-acetyl-8-cyclopentyl-5-methyl-7-oxo-7,8-dihydropyrido[2,3-d]pyrimidin-2-yl)amino)pyridin-3-yl)piperazin-1-yl)butyl)-2-((2-(2,6-dioxopiperidin-3-yl)-1,3-dioxoisoindolin-4-yl)oxy)acetamide) is shown here: […]

[4] = target: T3, Helios (Homo sapiens, UniProt Q96SW2+Q9UKS7); experiment: Immunoblot of Helios levels in Jurkat cells; settings: 1 μM; for degradation of Helios (immunoblot): 4 h; for protein abundance of Helios (immunoblot): 16 h
T3 construct: immunoblots from Jurkat cells treated with the indicated compounds; endogenous in cells; host or cells: Jurkat cells
Method: as §1, §2, §3, §4

[5] = tested on: Jurkat cells; experiment: Propidium iodide staining for DNA content (G1 arrest); settings: 100 nM, 24 h
Method: FIG. 3A is a set of histograms and the quantification of the DNA content using propidium iodide (PI) staining after treatment of Jurkat cells with the indicated compounds (palbociclib, DKY709, 18, Ia-6, 16, Ia-8, and 17) at 100 nM for 24 h.
The structure of 18 (N-(4-(4-(6-((6-acetyl-8-cyclopentyl-5-methyl-7-oxo-7,8-dihydropyrido[2,3-d]pyrimidin-2-yl)amino)pyridin-3-yl)piperazin-1-yl)butyl)-2-((2-(1-methyl-2,6-dioxopiperidin-3-yl)-1,3-dioxoisoindolin-4-yl)amino)acetamide) is shown here: […]

[6] = tested on: phosphorylated Rb; experiment: Immunoblot of phosphorylated Rb in Jurkat cells; settings: 1 μM, 16 h
Method: as §3

[7] = tested on: Jurkat cells; experiment: Cell proliferation quantified by CellTiter-Glo; settings: Homo sapiens, 72 h, dose curve, 3 d, read-out: anti-proliferative activity
Source text: FIG. 3B is a graph of normalized luminescence versus concentration (log[inhibitor], M) of the indicated compounds (palbociclib, Ia-8, and 17) assessed by CellTiterGlo after treatment of Jurkat cells for 3 d.

[8] = target: T4, Ikaros (Homo sapiens, UniProt Q13422); experiment: Immunoblot of Ikaros levels in Jurkat cells; settings: 1 μM, 4 h
T4 construct: endogenous in cells; host or cells: Jurkat cells
Method: as §1, §2, §4

T2 sequence (Q00534 whole entry): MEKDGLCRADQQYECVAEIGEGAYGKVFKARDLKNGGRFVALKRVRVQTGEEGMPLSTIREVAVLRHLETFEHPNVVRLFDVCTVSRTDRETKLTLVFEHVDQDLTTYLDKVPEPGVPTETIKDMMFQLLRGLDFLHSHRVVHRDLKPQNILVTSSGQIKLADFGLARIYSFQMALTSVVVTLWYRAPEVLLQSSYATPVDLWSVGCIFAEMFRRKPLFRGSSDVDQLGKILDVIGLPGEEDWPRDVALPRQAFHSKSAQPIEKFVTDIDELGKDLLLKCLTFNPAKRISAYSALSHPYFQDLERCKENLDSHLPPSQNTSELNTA
T1 sequence (P11802 whole entry): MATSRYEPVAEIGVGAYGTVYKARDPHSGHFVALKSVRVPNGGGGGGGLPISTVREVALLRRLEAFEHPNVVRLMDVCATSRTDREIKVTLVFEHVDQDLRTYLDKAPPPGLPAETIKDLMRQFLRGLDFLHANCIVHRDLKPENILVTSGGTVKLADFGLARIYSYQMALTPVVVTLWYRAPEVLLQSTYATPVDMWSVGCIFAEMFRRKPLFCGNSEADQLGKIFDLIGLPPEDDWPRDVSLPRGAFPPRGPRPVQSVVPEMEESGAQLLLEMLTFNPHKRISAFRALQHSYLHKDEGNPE
T3 sequence (Q9UKS7 whole entry): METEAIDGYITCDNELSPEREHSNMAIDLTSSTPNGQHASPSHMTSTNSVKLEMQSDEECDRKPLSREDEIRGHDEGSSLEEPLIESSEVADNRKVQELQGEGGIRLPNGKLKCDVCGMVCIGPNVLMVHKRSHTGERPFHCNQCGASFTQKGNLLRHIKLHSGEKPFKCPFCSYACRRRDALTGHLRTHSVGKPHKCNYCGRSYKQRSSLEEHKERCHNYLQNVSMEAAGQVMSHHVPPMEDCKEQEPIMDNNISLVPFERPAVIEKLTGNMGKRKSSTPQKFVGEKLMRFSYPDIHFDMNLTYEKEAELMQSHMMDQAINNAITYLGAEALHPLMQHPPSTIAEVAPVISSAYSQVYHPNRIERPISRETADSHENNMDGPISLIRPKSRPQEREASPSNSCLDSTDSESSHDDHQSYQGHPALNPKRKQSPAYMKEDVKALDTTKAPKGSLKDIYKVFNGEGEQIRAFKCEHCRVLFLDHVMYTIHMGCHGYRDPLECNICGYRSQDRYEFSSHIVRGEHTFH
T3 sequence (Q96SW2 whole entry): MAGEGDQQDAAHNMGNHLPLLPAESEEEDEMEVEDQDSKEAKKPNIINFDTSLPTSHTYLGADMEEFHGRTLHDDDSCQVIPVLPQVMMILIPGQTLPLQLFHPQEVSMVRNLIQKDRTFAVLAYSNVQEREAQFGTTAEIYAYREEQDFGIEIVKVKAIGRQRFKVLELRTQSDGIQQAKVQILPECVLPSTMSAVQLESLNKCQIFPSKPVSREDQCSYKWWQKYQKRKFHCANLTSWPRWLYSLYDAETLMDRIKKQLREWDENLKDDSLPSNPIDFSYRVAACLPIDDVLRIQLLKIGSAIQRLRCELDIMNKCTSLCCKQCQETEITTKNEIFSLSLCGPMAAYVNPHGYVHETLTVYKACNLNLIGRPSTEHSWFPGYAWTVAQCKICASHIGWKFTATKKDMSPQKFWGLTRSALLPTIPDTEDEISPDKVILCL
T3 sequence (Q16531 whole entry partner): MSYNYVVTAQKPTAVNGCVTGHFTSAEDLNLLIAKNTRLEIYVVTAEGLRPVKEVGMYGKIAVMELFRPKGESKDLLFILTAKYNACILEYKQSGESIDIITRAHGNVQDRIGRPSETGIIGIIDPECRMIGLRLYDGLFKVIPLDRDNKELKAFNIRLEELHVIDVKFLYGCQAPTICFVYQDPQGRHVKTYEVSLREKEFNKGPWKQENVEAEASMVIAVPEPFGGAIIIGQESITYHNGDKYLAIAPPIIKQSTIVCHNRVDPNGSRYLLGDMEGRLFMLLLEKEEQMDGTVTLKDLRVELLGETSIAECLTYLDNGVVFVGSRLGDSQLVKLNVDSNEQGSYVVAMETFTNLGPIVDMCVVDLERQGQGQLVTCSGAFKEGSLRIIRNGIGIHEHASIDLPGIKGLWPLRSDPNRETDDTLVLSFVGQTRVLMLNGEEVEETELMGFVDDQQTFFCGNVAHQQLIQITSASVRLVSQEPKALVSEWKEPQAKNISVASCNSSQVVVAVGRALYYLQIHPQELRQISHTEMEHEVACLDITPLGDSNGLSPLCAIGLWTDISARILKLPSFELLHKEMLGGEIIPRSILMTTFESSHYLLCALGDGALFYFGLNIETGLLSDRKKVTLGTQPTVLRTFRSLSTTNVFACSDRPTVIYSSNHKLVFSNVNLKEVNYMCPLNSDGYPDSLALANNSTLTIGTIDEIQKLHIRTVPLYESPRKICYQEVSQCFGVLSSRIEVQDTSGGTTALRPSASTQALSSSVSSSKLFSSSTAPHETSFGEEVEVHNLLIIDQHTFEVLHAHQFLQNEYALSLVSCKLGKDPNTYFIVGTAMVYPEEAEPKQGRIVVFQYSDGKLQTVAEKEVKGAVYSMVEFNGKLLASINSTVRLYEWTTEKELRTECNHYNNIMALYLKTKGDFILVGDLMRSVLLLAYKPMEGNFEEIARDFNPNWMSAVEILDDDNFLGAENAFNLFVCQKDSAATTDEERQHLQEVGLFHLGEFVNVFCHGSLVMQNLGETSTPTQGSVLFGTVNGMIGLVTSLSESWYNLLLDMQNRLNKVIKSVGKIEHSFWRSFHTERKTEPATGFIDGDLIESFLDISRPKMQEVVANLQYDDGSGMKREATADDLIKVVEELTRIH
T4 sequence (Q96SW2 whole entry partner): as the sequence (Q96SW2 whole entry) above
T4 sequence (Q16531 whole entry partner): as the sequence (Q16531 whole entry partner) above
T4 sequence (Q13422 whole entry): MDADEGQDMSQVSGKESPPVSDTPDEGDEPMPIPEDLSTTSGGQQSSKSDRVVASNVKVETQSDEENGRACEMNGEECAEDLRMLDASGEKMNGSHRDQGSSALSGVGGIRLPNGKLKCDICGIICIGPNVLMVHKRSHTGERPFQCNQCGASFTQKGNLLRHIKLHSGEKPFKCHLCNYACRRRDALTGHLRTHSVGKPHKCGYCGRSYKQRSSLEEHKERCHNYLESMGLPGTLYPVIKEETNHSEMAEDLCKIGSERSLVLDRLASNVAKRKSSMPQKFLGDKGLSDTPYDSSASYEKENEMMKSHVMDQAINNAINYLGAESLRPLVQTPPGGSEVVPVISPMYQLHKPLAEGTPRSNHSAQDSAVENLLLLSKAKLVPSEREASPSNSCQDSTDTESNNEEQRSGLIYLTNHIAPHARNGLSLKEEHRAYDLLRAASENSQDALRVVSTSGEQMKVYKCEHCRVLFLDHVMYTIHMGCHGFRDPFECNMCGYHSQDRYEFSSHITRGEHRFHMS

Structure (SMILES)	degradation of CDK4 (immunoblot) [1]	degradation of CDK6 (immunoblot) [2]	IL-2 secretion [3]	degradation of Helios (immunoblot) [4]	protein abundance of Helios (immunoblot) [4]	induction of G1 arrest [5]	levels of phosphorylated Rb (immunoblot) [6]	protein abundance of CDK4 (immunoblot) [1]	IC50 [7] [nM]	protein abundance of CDK6 (immunoblot) [2]	degradation of Ikaros (immunoblot) [8]
O=C1CCC(N2Cc3cc(C4CCN(Cc5ccccc5)CC4)ccc3C2=O)C(=O)N1 (centres unmarked) [DKY709, 3-(5-(1-benzylpiperidin-4-yl)-1-oxoisoindolin-2-yl)piperidine-2,6-dione, reference compound]	did not affect CDK4 or CDK6 abundance	did not affect CDK4 or CDK6 abundance	elevated IL-2 secretion, although it did not reach statistical significance	only induced degradation of Helios	induced Helios degradation	but not DKY709, induced G1 arrest	without affecting the levels of phosphorylated Rb	–	–	–	–
CC(=O)c1c(C)c2cnc(Nc3ccc(N4CCN(CCOc5ccc(CN6CCC(c7ccc8c(c7)CN(C7CCC(=O)NC7=O)C8=O)CC6)cc5)CC4)cn3)nc2n(C2CCCC2)c1=O (centres unmarked) [Ia-8, 3-(5-(1-(4-(2-(4-(6-((6-acetyl-8-cyclopentyl-5-methyl-7-oxo-7,8-dihydropyrido[2,3-d]pyrimidin-2-yl)amino)pyridin-3-yl)piperazin-1-yl)ethoxy)benzyl)piperidin-4-yl)-1-oxoisoindolin-2-yl)piperidine-2,6-dione]	induced the degradation of CDK4, CDK6, and Helios	induced the degradation of CDK4, CDK6, and Helios	induced elevated levels of IL2 that were comparable to that of 18	induced the degradation of CDK4, CDK6, and Helios	induced the triple degradation of Helios, CDK4, and CDK6	induced G1 arrest	reduced the levels of phosphorylated Rb	induced the triple degradation of Helios, CDK4, and CDK6	166	induced the triple degradation of Helios, CDK4, and CDK6	but not Ikaros
Nc1cccc2c1CN(C1CCC(=O)NC1=O)C2=O (centres unmarked) [Lenalidomide, reference compound]	–	–	elevated IL-2 secretion, although it did not reach statistical significance	–	–	–	–	–	–	–	–
CC(=O)c1c(C)c2cnc(Nc3ccc(N4CCN(CCOc5ccc(CN6CCC(c7ccc8c(c7)CN(C7CCC(=O)N(C)C7=O)C8=O)CC6)cc5)CC4)cn3)nc2n(C2CCCC2)c1=O (centres unmarked) [compound 17, 3-(5-(1-(4-(2-(4-(6-((6-acetyl-8-cyclopentyl-5-methyl-7-oxo-7,8-dihydropyrido[2,3-d]pyrimidin-2-yl)amino)pyridin-3-yl)piperazin-1-yl)ethoxy)benzyl)piperidin-4-yl)-1-oxoisoindolin-2-yl)-1-methylpiperidine-2,6-dione]	had no degradation activity	had no degradation activity	had activity similar to that of palbociclib	had no degradation activity	had minimal effects	did not	had minimal effects	had minimal effects	244	had minimal effects	–
